Test results: PMC10066365, “Nemacol is a small molecule inhibitor of C. elegans vesicular acetylcholine transporter with anthelmintic potential” (Nature Communications, 2023)
Several values for one entry are separate records, joined by “and”; a condition that tells them apart may be missing. Identical values can stand only once.

Tested on: C. elegans
Test: Suppression of trichlorfon (AChE inhibitor) paralysis, double dose-response, scored after 80 min
Type: in vivo, Caenorhabditis elegans
Settings: wild-type, bio rep 1-3

O[C@@H]1CCCC[C@H]1N1CCC(c2ccccc2)CC1 (racemic) [vesamicol, reference compound]
% para (percentage of animals able to adopt a clear sinusoidal wave pattern upon touch on the nose) (vesamicol 31.75 uM + trichlorfon 0 uM): 96.4286% and 100%
% para (percentage of animals able to adopt a clear sinusoidal wave pattern upon touch on the nose) (vesamicol 31.75 uM + trichlorfon 25 uM): 92.8571% and 96.4286% and 100%
% para (percentage of animals able to adopt a clear sinusoidal wave pattern upon touch on the nose) (vesamicol 31.75 uM + trichlorfon 50 uM): 82.1429% and 71.4286% and 96.4286%
% para (percentage of animals able to adopt a clear sinusoidal wave pattern upon touch on the nose) (vesamicol 31.75 uM + trichlorfon 100 uM): 64.2857% and 53.5714% and 42.8571%
% para (percentage of animals able to adopt a clear sinusoidal wave pattern upon touch on the nose) (vesamicol 31.75 uM + trichlorfon 400 uM): 0%
% para (percentage of animals able to adopt a clear sinusoidal wave pattern upon touch on the nose) (vesamicol 31.75 uM + trichlorfon 800 uM): 0%
% para (percentage of animals able to adopt a clear sinusoidal wave pattern upon touch on the nose) (vesamicol 62.5 uM + trichlorfon 0 uM): 100%
% para (percentage of animals able to adopt a clear sinusoidal wave pattern upon touch on the nose) (vesamicol 62.5 uM + trichlorfon 25 uM): 92.8571% and 100%
% para (percentage of animals able to adopt a clear sinusoidal wave pattern upon touch on the nose) (vesamicol 62.5 uM + trichlorfon 50 uM): 89.2857% and 85.7143% and 96.4286%
% para (percentage of animals able to adopt a clear sinusoidal wave pattern upon touch on the nose) (vesamicol 62.5 uM + trichlorfon 100 uM): 67.8571% and 64.2857% and 53.5714%
% para (percentage of animals able to adopt a clear sinusoidal wave pattern upon touch on the nose) (vesamicol 62.5 uM + trichlorfon 400 uM): 0% and 3.571%
% para (percentage of animals able to adopt a clear sinusoidal wave pattern upon touch on the nose) (vesamicol 62.5 uM + trichlorfon 800 uM): 0%
% para (percentage of animals able to adopt a clear sinusoidal wave pattern upon touch on the nose) (vesamicol 125 uM + trichlorfon 0 uM): 100%
% para (percentage of animals able to adopt a clear sinusoidal wave pattern upon touch on the nose) (vesamicol 125 uM + trichlorfon 25 uM): 96.4286% and 100%
% para (percentage of animals able to adopt a clear sinusoidal wave pattern upon touch on the nose) (vesamicol 125 uM + trichlorfon 50 uM): 96.4286% and 78.5714% and 92.8571%
% para (percentage of animals able to adopt a clear sinusoidal wave pattern upon touch on the nose) (vesamicol 125 uM + trichlorfon 100 uM): 85.7143% and 67.8571% and 60.7143%
% para (percentage of animals able to adopt a clear sinusoidal wave pattern upon touch on the nose) (vesamicol 125 uM + trichlorfon 800 uM): 0%
% para (percentage of animals able to adopt a clear sinusoidal wave pattern upon touch on the nose) (vesamicol 250 uM + trichlorfon 0 uM): 96.4286% and 100%
% para (percentage of animals able to adopt a clear sinusoidal wave pattern upon touch on the nose) (vesamicol 250 uM + trichlorfon 25 uM): 100% and 96.4286%
% para (percentage of animals able to adopt a clear sinusoidal wave pattern upon touch on the nose) (vesamicol 250 uM + trichlorfon 50 uM): 96.4286% and 89.2857% and 100%
% para (percentage of animals able to adopt a clear sinusoidal wave pattern upon touch on the nose) (vesamicol 250 uM + trichlorfon 100 uM): 75% and 78.5714%
% para (percentage of animals able to adopt a clear sinusoidal wave pattern upon touch on the nose) (vesamicol 250 uM + trichlorfon 800 uM): 0%
% para (percentage of animals able to adopt a clear sinusoidal wave pattern upon touch on the nose) (vesamicol 500 uM + trichlorfon 0 uM): 100%
% para (percentage of animals able to adopt a clear sinusoidal wave pattern upon touch on the nose) (vesamicol 500 uM + trichlorfon 25 uM): 100% and 92.8571% and 96.4286%
% para (percentage of animals able to adopt a clear sinusoidal wave pattern upon touch on the nose) (vesamicol 500 uM + trichlorfon 50 uM): 89.2857% and 96.4286% and 78.5714%
% para (percentage of animals able to adopt a clear sinusoidal wave pattern upon touch on the nose) (vesamicol 500 uM + trichlorfon 100 uM): 82.1429% and 85.7143%
% para (percentage of animals able to adopt a clear sinusoidal wave pattern upon touch on the nose) (vesamicol 500 uM + trichlorfon 200 uM): 42.8571% and 50% and 71.4286%
% para (percentage of animals able to adopt a clear sinusoidal wave pattern upon touch on the nose) (vesamicol 500 uM + trichlorfon 800 uM): 0%
